US20080306057A1, “P13K Inhibitors for the Treatment of Endometriosis” (LABORATORIES SERONO SA, priority 2005, published 2008)
Where two headings read alike, the source gives them in different places.

Columns and labels:
[1] = system: endometriotic cells (12Z cells); test: Induction of cell death in endometriotic cells, crystal violet staining; type: cell-based, human; details: for EC50: Homo sapiens, 12Z, crystal violet staining
From the text: It is well established that the glandular and stromal tissues from the eutopic endometrium implant in ectopic sites leading to endometriosis. Survival of the ectopic implants is due to a reduced cell death (apoptosis) of these implants, and is presumed to be due to increased expression of survival cell signaling pathways. Proteins or specific small molecule compounds that induce target-specific cell-death of ectopic endometriotic cells without affecting eutopic endometrium or other normal cells could be used as a treatment for eliminating endometriosis. In this regard, we examined the effect of PI3K inhibitor-1 (5-Quinoxalin-6-ylmethylene-thiazolidine-2,4-dione) on its ability to induce cell death of endometriotic cells (12Z cells), an immortalized human epithelial endometriotic cell (Zeitvogel et al. 2001). These cells grow in culture and secrete cytokines in response to TNFα that have been reported to be elevated in the peritoneal fluid of endometriotic patients. The 12Z cells were treated with PI3K inhibitor-1 for 24 h and cell death was measured by crystal violet staining. Since the peritoneal fluids contain elevated concentrations of TNFα, the inhibitor was also tested in the presence of this cytokine. Dead cells get detached from the tissue culture plate and washed away during staining with crystal violet. The intensity of the color will determine the extent of live cells present in the plate. […] TNFα alone had no effect of cell viability (data not shown).

[2] = system: endometriosis-like foci; test: Rat model of endometriosis (autologous uterine horn fragment transplant); type: in vivo
Method: Endometriosis was induced in rats as described earlier (D'Antonio et al 2000). In brief, autologous uterine horn fragment was transplanted onto the inner surface of the abdominal wall in rat. Three weeks following transplantation, the size and the viability of the engrafted tissue was measured. One week after the confirmation of the tissue attachment, treatments were started. The control group received the vehicle, the PI3K inhibitor-1 was administered orally (po) at a single dose of 30 mg/kg per day. Treatment with the inhibitor was conducted for nine days, animals were anaesthetized 2 hr following the last treatment and blood samples were collected. Surface area of the endometriosis-like foci was measured. The endometriotic-like foci was removed for histology.

[3] = system: endometriotic lesions from human endometrial tissue; test: Xenograft nude mouse model of endometriosis; type: in vivo, nude mice
Method: Human endometrial tissue was injected in ovarectomized nude mice to establish the disease (Bruner-Tran et al. 2002). In brief, endometrial biopsies obtained from normal volunteers or from endometriotic patients were cut into small pieces and cultured in the presence of estradiol for 24 h. Treated tissues, were injected either subcutaneously or intraperitoneally into ovarectomized nude mice with estradiol implant. Within 2-4 days of injection, ectopic endometriotic lesions develop in animals. Treatment with either progesterone or PI3K inhibitor-1 was started 10 days following the injection of tissue. The compound was administered at a dose of 10 mg/kg and 30 mg/kg/animal for 28 days. […] Following the completion of treatment, animals were sacrificed, lesions developed from the transplanted tissue found in both subcutaneous and intraperitoneal sites, were measured (both size and number).

[4] = system: endometriosis; details: cited from earlier work
[5] = 10 mg/kg × 28 days, listed as PI3K inhibitor
[6] = 30 mg/kg × 28 days, listed as PI3K inhibitor

With TNFα the Cell viability ([1]; TNFα alone, data not shown) was “no effect”.

In the case of O=C1NC(=O)C(=Cc2ccc3nccnc3c2)S1 [PI3K inhibitor-1, 5-Quinoxalin-6-ylmethylene-thiazolidine-2,4-dione], the “Regression of established endometriotic lesions” value ([2]; 30 mg/kg per day po, nine days) is reported as 64%, the “Effect on the uterine weight and size of the animals” value ([3]; 10 mg/kg and 30 mg/kg for 28 days) is reported as “no effect” and the “Lesion (% Progesterone) Compared to progesterone treated group, decrease” value ([3]; 10 mg/kg × 28 days) is reported as 53% Decrease. The “Lesion size, decrease” value ([3]; 10 mg/kg × 28 days) was 10% Decrease, the “Lesion (% Progesterone) Compared to progesterone treated group, decrease” value [3, 5] was 53% and the “Lesion size, decrease” value [3, 5] was 10%. For the same molecule, the “Lesion (% Progesterone) Compared to progesterone treated group, decrease” value ([3]; 30 mg/kg × 28 days) was 80% Decrease, the “Lesion size, decrease” value ([3]; 30 mg/kg × 28 days) was 30% Decrease and the “Lesion (% Progesterone) Compared to progesterone treated group, decrease” value [3, 6] was 80%. For the same molecule, the “Lesion size, decrease” value [3, 6] was 30%, the “Extent of cell death induced, with versus without TNFα” value ([1]; 24 h) was “greater in the presence of TNFα” and the “Amount of live cells in culture” value ([1]; 24 h, either alone or in the presence of TNFα) was “reduce the amount of live cells in culture”. It also gave an EC50 ([1]; in the presence of 15 ng/ml of TNFα, 24 h, read-out: Concentration required to induce 50% cell death (EC50), +TNFα) of 6.4 µM and an EC50 ([1]; inhibitor alone, 24 h, read-out: Concentration required to induce 50% cell death (EC50), Alone) of over 10 µM.

For antide [reference compound], the “Regression of established endometriotic lesions” value ([2]; for comparison, data not shown) was 94%.

For C#C[C@]1(O)CC[C@H]2[C@@H]3CCC4=Cc5oncc5C[C@]4(C)[C@H]3CC[C@@]21C [Danazol], the Recurrence rate ([4]; after up to 4 years) is listed as 40%-50 and the “Patients suffering from pain with improved symptoms” value ([4]; endometriosis patients) is listed as 66-100%.
